# Reference: patent US9783527B2, “Indazole ureas and method of use” (AbbVie Inc., priority 2014, dated 2017)
# Tests used:
# human Nav1.7 = human Nav1.7 (Homo sapiens (Human), UniProt Q15858); assay: FRET-based membrane potential assay, recombinant human sodium channel Nav1.7; format: cell-based; conditions: HEK293 cells stably expressing recombinant human Nav1.7; depolarization with veratridine (EC80) + scorpion venom
# Outline: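 IC50 derived by four-parameter Hill fit of percent inhibition of depolarization, measured as peak F440-480/F565-625 ratio over baseline. Stable human Nav1.7 HEK293 cells, dye-loaded with CC2-DMPE and DiSBAC2(3)/VABSC-1 at room temperature, received compound 3 min ahead of veratridine (EC80) plus scorpion venom.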
# human Nav1.8 = human Nav1.8 (Homo sapiens (Human), UniProt Q9Y5Y9); assay: FRET-based membrane potential assay, recombinant human sodium channel Nav1.8; format: cell-based; conditions: HEK293 cells stably expressing recombinant human Nav1.8; depolarization with veratridine (EC80) + scorpion venom
# Outline: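 HEK293 cells stably expressing Nav1.8 were loaded with CC2-DMPE/DiSBAC2(3) FRET voltage dyes. Compounds were added 3 min before depolarization with EC80 veratridine plus scorpion venom. The F440-480/F565-625 ratio was read on FLIPR; IC50 came from four-parameter Hill fits.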
# [1] = system: MIA-induced osteoarthritic pain in rats; assay: Osteoarthritic (OA) pain induced by sodium monoiodoacetate (MIA), hind limb grip force; format: in vivo, rat; conditions: male Sprague Dawley rats, grip force 20 days after MIA injection
# Experimental: Osteoarthritic (OA) Pain Induced by Sodium Monoiodoacetate (MIA)
# Pain behavior was assessed by measurement of hind limb grip force (GF) in adult osteoarthritic rats. Male Sprague Dawley rats, obtained from Charles River Laboratories, (Wilmington, Mass.), weighing 150-175 g, were injected in the unilateral knee join with a single intra-articular injection of sodium monoiodoacetate (MIA, 3 mg/rat). All rats were tested at 20 days following MIA injection. A behavioral measure of activity-induced pain was carried out. Measurements of the peak hind limb grip force were conducted by recording the maximum compressive force (CFmax), in grams of force, exerted on a hind limb strain gauge setup, in a commercially available grip force measurement system (Columbus Instruments, Columbus, Ohio).
# During testing, each rat was gently restrained by grasping it around its rib cage and then allowed to grasp the wire mesh frame attached to the strain gauge. The experimenter then moved the animal in a rostral-to-caudal direction until the grip was broken. Each rat was sequentially tested twice at an approximately 2-3 minute interval to obtain a raw mean grip force (CFmax). This raw mean grip force data was in turn converted to a maximum hindlimb cumulative compressive force (CFmax), as the grams of force/kg of body weight, for each animal.
# For evaluating the compound effects, the hind limb grip force was conducted 20 days following the intra-articular injection of MIA. A group of age-matched nave (not injected with MIA) animals was added as a comparator to the drug-dosed groups. The vehicle control response for each group of MIA-treated animals was defined as the 0% response (0% effect), whereas the nave control group was defined as the normal response and as 100% effect. The % effect for each dose group was expressed as % return of response to normalcy, compared to the nave group. A percent maximal possible effect (% MPE) of testing compound was calculated according to the formula: (Treatment CFmax−Vehicle CFmax)/Vehicle CFmax]×100). Higher % effect numbers indicate increased relief from the pain in the model, with 100% indicating a return to the level of response seen in normal (non-osteoarthritic) animals. All experiments evaluating drug effects in this model were conducted in a randomized blinded fashion.
# The animals were housed in Association for Assessment and Accreditation of Laboratory Animal Care (AAALAC) approved facilities at AbbVie Inc. in a temperature-regulated environment under a controlled 12-hour light-dark cycle, with lights on at 6:00 a.m. Food and water were available ad libitum at all times except during testing. All testing was done following procedures outlined in protocols approved by AbbVie Inc.'s Institutional Animal Care and Use Committee.
# Sequence of human Nav1.7 (Q15858 whole entry): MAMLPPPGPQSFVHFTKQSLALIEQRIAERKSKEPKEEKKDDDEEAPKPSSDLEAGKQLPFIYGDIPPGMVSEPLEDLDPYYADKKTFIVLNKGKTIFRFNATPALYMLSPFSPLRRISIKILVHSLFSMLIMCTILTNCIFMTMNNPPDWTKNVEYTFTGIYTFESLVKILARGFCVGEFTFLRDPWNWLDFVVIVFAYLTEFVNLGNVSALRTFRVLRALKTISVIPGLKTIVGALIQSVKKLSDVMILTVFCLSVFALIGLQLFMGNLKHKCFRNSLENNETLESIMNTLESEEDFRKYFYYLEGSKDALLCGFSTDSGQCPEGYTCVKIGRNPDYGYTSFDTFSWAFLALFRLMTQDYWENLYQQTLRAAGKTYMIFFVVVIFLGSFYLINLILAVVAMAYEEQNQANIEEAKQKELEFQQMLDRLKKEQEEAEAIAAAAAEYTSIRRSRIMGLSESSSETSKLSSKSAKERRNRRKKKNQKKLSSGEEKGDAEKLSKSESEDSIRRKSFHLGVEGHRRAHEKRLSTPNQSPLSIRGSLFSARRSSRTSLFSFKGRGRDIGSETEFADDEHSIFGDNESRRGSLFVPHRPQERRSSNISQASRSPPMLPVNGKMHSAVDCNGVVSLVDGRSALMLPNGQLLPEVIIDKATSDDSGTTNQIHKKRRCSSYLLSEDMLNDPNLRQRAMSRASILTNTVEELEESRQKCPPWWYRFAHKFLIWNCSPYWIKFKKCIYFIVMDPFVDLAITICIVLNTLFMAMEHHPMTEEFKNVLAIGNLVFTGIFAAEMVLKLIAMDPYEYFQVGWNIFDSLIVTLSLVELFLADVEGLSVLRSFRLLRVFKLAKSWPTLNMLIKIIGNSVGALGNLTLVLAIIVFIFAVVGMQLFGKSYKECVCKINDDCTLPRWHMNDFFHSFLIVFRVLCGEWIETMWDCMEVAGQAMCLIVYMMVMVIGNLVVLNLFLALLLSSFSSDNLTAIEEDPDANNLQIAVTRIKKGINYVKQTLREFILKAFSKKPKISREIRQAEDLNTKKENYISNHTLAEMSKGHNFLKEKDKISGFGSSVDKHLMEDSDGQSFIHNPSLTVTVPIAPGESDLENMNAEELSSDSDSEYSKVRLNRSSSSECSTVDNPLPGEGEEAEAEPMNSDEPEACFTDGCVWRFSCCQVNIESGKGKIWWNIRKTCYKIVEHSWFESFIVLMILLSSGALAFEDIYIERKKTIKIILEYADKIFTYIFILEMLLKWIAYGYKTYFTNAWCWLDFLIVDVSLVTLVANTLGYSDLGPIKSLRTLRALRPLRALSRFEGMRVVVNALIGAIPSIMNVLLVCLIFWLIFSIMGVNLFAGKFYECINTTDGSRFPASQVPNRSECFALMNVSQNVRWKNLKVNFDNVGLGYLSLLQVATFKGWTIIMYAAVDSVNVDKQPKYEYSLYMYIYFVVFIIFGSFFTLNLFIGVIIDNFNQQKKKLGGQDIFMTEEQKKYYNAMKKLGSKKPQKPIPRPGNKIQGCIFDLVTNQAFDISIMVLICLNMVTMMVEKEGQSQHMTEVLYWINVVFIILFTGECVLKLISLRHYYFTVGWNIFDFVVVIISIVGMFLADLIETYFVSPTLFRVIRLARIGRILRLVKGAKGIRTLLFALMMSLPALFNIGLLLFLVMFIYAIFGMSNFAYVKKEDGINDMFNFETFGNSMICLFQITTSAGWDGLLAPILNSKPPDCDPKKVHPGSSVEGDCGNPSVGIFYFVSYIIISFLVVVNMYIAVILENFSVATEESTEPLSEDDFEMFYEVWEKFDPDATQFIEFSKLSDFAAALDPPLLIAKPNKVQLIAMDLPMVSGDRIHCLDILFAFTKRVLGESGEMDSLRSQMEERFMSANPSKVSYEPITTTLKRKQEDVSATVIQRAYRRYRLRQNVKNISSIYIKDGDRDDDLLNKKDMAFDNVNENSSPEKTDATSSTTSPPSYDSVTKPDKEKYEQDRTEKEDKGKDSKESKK
# Sequence of human Nav1.8 (Q9Y5Y9 whole entry): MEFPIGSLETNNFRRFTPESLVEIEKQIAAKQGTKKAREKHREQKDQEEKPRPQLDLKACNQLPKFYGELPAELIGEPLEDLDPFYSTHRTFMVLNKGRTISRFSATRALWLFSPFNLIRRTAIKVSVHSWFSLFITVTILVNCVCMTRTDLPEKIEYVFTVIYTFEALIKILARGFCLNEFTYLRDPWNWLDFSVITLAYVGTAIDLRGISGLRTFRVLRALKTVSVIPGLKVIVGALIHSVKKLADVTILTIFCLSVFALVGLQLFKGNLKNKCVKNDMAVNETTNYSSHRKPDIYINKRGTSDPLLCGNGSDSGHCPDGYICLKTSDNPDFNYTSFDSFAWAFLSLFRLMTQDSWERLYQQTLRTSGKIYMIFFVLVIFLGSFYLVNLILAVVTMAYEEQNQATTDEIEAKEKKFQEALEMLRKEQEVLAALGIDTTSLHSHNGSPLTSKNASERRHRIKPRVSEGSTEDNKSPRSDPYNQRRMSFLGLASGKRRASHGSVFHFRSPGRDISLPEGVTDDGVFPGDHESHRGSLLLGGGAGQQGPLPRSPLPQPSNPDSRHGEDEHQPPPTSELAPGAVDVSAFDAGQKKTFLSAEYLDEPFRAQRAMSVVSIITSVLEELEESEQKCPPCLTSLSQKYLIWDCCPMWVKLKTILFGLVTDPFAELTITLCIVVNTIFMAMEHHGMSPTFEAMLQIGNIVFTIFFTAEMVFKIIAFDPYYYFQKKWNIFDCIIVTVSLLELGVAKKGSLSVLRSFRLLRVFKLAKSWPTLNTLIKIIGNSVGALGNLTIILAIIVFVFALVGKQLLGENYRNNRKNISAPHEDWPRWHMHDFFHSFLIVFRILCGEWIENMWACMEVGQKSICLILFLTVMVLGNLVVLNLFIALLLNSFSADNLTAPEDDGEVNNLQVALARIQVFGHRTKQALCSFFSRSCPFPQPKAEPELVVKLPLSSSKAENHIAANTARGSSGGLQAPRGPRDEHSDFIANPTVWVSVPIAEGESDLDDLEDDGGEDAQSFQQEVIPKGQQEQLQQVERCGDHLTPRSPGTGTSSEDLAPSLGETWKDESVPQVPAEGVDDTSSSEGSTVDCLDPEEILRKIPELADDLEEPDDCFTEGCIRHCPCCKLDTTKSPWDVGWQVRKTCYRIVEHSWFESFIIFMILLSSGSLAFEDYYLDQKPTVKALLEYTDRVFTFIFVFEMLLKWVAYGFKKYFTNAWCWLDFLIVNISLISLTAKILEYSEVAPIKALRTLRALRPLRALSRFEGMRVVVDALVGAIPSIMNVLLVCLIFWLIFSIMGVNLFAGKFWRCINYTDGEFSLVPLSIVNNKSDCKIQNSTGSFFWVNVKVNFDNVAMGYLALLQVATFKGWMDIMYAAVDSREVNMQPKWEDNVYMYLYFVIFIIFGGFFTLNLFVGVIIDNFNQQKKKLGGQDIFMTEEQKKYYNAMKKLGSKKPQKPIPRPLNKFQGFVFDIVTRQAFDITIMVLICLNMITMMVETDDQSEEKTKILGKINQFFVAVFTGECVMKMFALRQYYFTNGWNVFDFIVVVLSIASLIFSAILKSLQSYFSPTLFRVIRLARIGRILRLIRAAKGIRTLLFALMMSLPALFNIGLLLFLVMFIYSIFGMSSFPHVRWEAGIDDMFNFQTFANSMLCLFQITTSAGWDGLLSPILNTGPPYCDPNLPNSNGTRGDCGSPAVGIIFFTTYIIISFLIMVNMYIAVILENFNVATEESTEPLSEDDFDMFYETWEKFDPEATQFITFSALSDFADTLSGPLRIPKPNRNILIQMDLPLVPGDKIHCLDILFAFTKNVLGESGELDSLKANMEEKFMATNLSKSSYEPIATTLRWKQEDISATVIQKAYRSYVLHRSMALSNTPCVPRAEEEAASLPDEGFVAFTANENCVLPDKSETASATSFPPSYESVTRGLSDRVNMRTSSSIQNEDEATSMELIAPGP
smiles,measurement,setting,value
"O=C1N(CC(=O)N2C[C@H]3C[C@@H]2CO3)CCN1c1cccc2c1cnn2-c1ccccc1F [Example 25, 1-[1-(2-fluorophenyl)-1H-indazol-4-yl]-3-{2-[(1R,4R)-2-oxa-5-azabicyclo[2.2.1]hept-5-yl]-2-oxoethyl}imidazolidin-2-one]",IC50,human Nav1.7,499 nM
same,IC50,human Nav1.8,8510 nM
same,OA MPE (%),[1]; OA dose 10 mg/kg,24%
"O=C1N(c2cccc3c2cnn3-c2ccccc2F)CCN1[C@@H]1CCOC1 [Example 32, 1-[1-(2-fluorophenyl)-1H-indazol-4-yl]-3-[(3R)-tetrahydrofuran-3-yl]imidazolidin-2-one]",IC50,human Nav1.7,4230 nM
same,IC50,human Nav1.8,2540 nM
same,OA MPE (%),[1]; OA dose 30 mg/kg,65%
"Cc1nnc(CN2CCN(c3cccc4c3cnn4-c3ccccc3F)C2=O)s1 [Example 40, 1-[1-(2-fluorophenyl)-1H-indazol-4-yl]-3-[(5-methyl-1,3,4-thiadiazol-2-yl)methyl]imidazolidin-2-one]",IC50,human Nav1.7,3150 nM
same,OA MPE (%),[1]; OA dose 10 mg/kg,41%
"Cc1cnc(CN2CCN(c3cccc4c3cnn4-c3ccccc3F)C2=O)o1 [Example 41, 1-[1-(2-fluorophenyl)-1H-indazol-4-yl]-3-[(5-methyl-1,3-oxazol-2-yl)methyl]imidazolidin-2-one]",IC50,human Nav1.7,1570 nM
same,OA MPE (%),[1]; OA dose 10 mg/kg,47%
"Cc1nccnc1CN1CCN(c2cccc3c2cnn3-c2ccccc2F)C1=O [Example 43, 1-[1-(2-fluorophenyl)-1H-indazol-4-yl]-3-[(3-methylpyrazin-2-yl)methyl]imidazolidin-2-one]",IC50,human Nav1.7,915 nM
same,OA MPE (%),[1]; OA dose 30 mg/kg,71%
"Cc1nnc(CN2CCN(c3cccc4c3cnn4-c3ccccc3F)C2=O)o1 [Example 44, 1-[1-(2-fluorophenyl)-1H-indazol-4-yl]-3-[(5-methyl-1,3,4-oxadiazol-2-yl)methyl]imidazolidin-2-one]",IC50,human Nav1.7,2940 nM
same,OA MPE (%),[1]; OA dose 30 mg/kg,71%
"CCc1cc(CN2CCN(c3cccc4c3cnn4-c3ccccc3F)C2=O)on1 [Example 45, 1-[(3-ethyl-1,2-oxazol-5-yl)methyl]-3-[1-(2-fluorophenyl)-1H-indazol-4-yl]imidazolidin-2-one]",IC50,human Nav1.7,1120 nM
same,OA MPE (%),[1]; OA dose 10 mg/kg,43%
"CCOc1nnc(CN2CCN(c3cccc4c3cnn4-c3ccccc3F)C2=O)s1 [Example 47, 1-[(5-ethoxy-1,3,4-thiadiazol-2-yl)methyl]-3-[1-(2-fluorophenyl)-1H-indazol-4-yl]imidazolidin-2-one]",IC50,human Nav1.7,1490 nM
same,IC50,human Nav1.8,3980 nM
same,OA MPE (%),[1]; OA dose 10 mg/kg,19%
"Cc1nc(CN2CCCN(c3cccc4c3cnn4-c3ccccc3F)C2=O)oc1C [Example 48, 1-[(4,5-dimethyl-1,3-oxazol-2-yl)methyl]-3-[1-(2-fluorophenyl)-1H-indazol-4-yl]tetrahydropyrimidin-2(1H)-one]",IC50,human Nav1.7,2010 nM
same,IC50,human Nav1.8,1140 nM
same,OA MPE (%),[1]; OA dose 10 mg/kg,20%
"O=C1N(Cc2nnc(C3CC3)o2)CCN1c1cccc2c1cnn2-c1ccccc1F [Example 49, 1-[(5-cyclopropyl-1,3,4-oxadiazol-2-yl)methyl]-3-[1-(2-fluorophenyl)-1H-indazol-4-yl]imidazolidin-2-one]",IC50,human Nav1.7,2320 nM
same,IC50,human Nav1.8,538 nM
same,OA MPE (%),[1]; OA dose 10 mg/kg,66%
"O=C1N(Cc2nnc(C3CCC3)o2)CCN1c1cccc2c1cnn2-c1ccccc1F [Example 50, 1-[(5-cyclobutyl-1,3,4-oxadiazol-2-yl)methyl]-3-[1-(2-fluorophenyl)-1H-indazol-4-yl]imidazolidin-2-one]",IC50,human Nav1.7,1530 nM
same,IC50,human Nav1.8,3080 nM
same,OA MPE (%),[1]; OA dose 10 mg/kg,7%
"CCS(=O)(=O)N1CC(N2CCN(c3cccc4c3cnn4-c3ccccc3F)C2=O)C1 [Example 51, 1-[1-(ethylsulfonyl)azetidin-3-yl]-3-[1-(2-fluorophenyl)-1H-indazol-4-yl]imidazolidin-2-one]",IC50,human Nav1.7,3100 nM
same,IC50,human Nav1.8,1140 nM
same,OA MPE (%),[1]; OA dose 30 mg/kg,16%
"O=C(CN1CCN(c2cccc3c2cnn3-c2ccccc2F)C1=O)N1CCC[C@@H](O)C1 [Example 52, 1-[1-(2-fluorophenyl)-1H-indazol-4-yl]-3-{2-[(3R)-3-hydroxypiperidin-1-yl]-2-oxoethyl}imidazolidin-2-one]",IC50,human Nav1.7,2490 nM
same,IC50,human Nav1.8,10100 nM
same,OA MPE (%),[1]; OA dose 30 mg/kg,27%
"Cc1cccc(-n2ncc3c(N4CCN(CC(=O)N5CC[C@H](F)C5)C4=O)cccc32)c1 [Example 56, 1-{2-[(3S)-3-fluoropyrrolidin-1-yl]-2-oxoethyl}-3-[1-(3-methylphenyl)-1H-indazol-4-yl]imidazolidin-2-one]",IC50,human Nav1.7,1830 nM
same,IC50,human Nav1.8,4630 nM
same,OA MPE (%),[1]; OA dose 30 mg/kg,70%
"CCC1(O)CN(C(=O)CN2CCN(c3cccc4c3cnn4-c3ccccc3F)C2=O)C1 [Example 205, 1-[2-(3-ethyl-3-hydroxyazetidin-1-yl)-2-oxoethyl]-3-[1-(2-fluorophenyl)-1H-indazol-4-yl]imidazolidin-2-one]",IC50,human Nav1.7,778 nM
same,IC50,human Nav1.8,1500 nM
same,OA MPE (%),[1]; OA dose 30 mg/kg,46%
"O=C(CN1CCN(c2cccc3c2cnn3-c2ccccc2)C1=O)N1CC[C@H](F)C1 [Example 307, 1-{2-[(3S)-3-fluoropyrrolidin-1-yl]-2-oxoethyl}-3-(1-phenyl-1H-indazol-4-yl)imidazolidin-2-one]",IC50,human Nav1.7,520 nM
same,IC50,human Nav1.8,1420 nM
same,OA MPE (%),[1]; OA dose 30 mg/kg,62%
"O=C(CN1CCN(c2cccc3c2cnn3-c2ccccc2F)C1=O)NC1(CO)CCC1 [Example 316, 2-{3-[1-(2-fluorophenyl)-1H-indazol-4-yl]-2-oxoimidazolidin-1-yl}-N-[1-(hydroxymethyl)cyclobutyl]acetamide]",IC50,human Nav1.7,3110 nM
same,IC50,human Nav1.8,1650 nM
same,OA MPE (%),[1]; OA dose 30 mg/kg,63%
"CC1(NC(=O)CN2CCN(c3cccc4c3cnn4-c3ccccc3F)C2=O)CC1 [Example 333, 2-{3-[1-(2-fluorophenyl)-1H-indazol-4-yl]-2-oxoimidazolidin-1-yl}-N-(1-methylcyclopropyl)acetamide]",IC50,human Nav1.7,2410 nM
same,IC50,human Nav1.8,4760 nM
same,OA MPE (%),[1]; OA dose 30 mg/kg,86%
